Assay results as given in patent US20070054916A1, “Aryl nitrogen-containing bicyclic compounds and methods of use” (Amgen Inc., priority 2004, published 2007).

Assays:
LCK KD GST (225-509) = LCK KD GST (225-509) (Homo sapiens, UniProt P06239); test: LCK Homogenous Time Resolved Flourescent (HTRF) kinase assay; settings: average IC50 value in the human HTRF assay for the inhibition of the Lck kinase enzyme
[1] = test system: production of TNF by monocytes activated with bacterial lipopolysaccharide (LPS); test: Lipopolysaccharide-activated monocyte TNF production assay; type: cell-based; settings: Homo sapiens, read-out: IC50 values in the monocyte assay (LPS induced TNF release)
How it was run: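 Adherent human PBMC-derived monocytes (~70%) in DMEM/2% FCS were pre-incubated 60 min with nine two-fold compound dilutions, then stimulated with E. coli K532 LPS (added as 30 ng/ml solution) for 4 h at 37 °C. Supernatant TNF-α was measured by sandwich ELISA. IC50 was taken from a polynomial fit of TNF versus compound concentration.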

Sequence of LCK KD GST (225-509) (P06239 225-509): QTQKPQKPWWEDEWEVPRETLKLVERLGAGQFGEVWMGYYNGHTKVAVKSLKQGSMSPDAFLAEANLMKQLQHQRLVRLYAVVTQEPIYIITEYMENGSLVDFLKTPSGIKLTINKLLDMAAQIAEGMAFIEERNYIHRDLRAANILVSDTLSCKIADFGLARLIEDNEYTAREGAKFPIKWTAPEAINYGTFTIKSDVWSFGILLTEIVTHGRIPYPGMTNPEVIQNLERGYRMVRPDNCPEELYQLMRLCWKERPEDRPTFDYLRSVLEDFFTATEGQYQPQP

IC50 (LCK KD GST (225-509))	SMILES	IC50 [1]
≤ 1 µM	Cc1ccc(C(=O)Nc2cc(C(F)(F)F)ccc2N(C)C2CCN(C)C2)cc1-c1ccc2nc(N)ncc2c1 (stereo in doubt) [Example 238, 3-(2-amino-6-quinazolinyl)-4-methyl-N-(2-(methyl((3S)-1-methyl-3-pyrrolidinyl)amino-5-(trifluoromethyl)phenyl)berizamide]	–
≤ 1 µM	Nc1ncc2cc(-c3ccc(C(=O)Nc4cccc(C(F)(F)F)c4)cc3)ccc2n1 [Example 15, 4-(2-amino-6-quinazolinyl)-N-(3-(trifluoromethyl)phenyl)benzamide]	–
≤ 25 µM	Cc1ccc(C(=O)NC2CC2)cc1-c1ccc2nc(NCCN(C)C)ncc2c1 [Example 44]	–
≤ 25 µM	Cc1ccc(C(=O)NC2CC2)cc1-c1ccc2nc(NC3CCN(C)CC3)ncc2c1 [Example 45, N-cyclopropyl-4-methyl-3-(2-((1-methyl-4-piperidinyl)amino)-6-quinazolinyl) benzamide]	–
≤ 1 µM	Cc1ccc(C(=O)NC2CC2)cc1-c1ccc2nc(NCCN3CCCCC3)ncc2c1 [Example 47, N-cyclopropyl-4-methyl-3-(2-((2-(1-piperidinyl)ethyl)amino)-6-quinazolinyl) benzamide]	–
≤ 1 µM	Cc1ccc(C(=O)Nc2cc(Cl)ccc2N(C)CCCN(C)C)cc1-c1ccc2nc(N)ncc2c1 [Example 95, 3-(2-amino-6-quinazolinyl)-N-(5-chloro-2-((3-(dimethylamino)propyl)(methyl)amino)phenyl)-4-methylbenzamide]	–
≤ 1 µM	CN(C)CCCN(C)c1ccc(C(F)(F)F)cc1NC(=O)c1cc(-c2ccc3nc(N)ncc3c2)cc2c1OCC2 [Example 96, 5-(2-amino-6-quinazolinyl)-N-(2-((3-(dimethylamino)propyl)(methyl)amino)-5-(trifluoromethyl)phenyl)-2,3-dihydro-1-benzofuran-7-carboxamide]	–
≤ 1 µM	Nc1ncc2cc(-c3cccc(C(=O)Nc4cccc(OC(F)(F)F)c4)c3)ccc2n1 [Example 98, 3-(2-amino-6-quinazolinyl)-N-(3-((trifluoromethyl)oxy)phenyl)benzamide]	–
≤ 1 µM	COc1c(Br)cc(-c2ccc3nc(N)ncc3c2)cc1C(=O)Nc1cc(C(F)(F)F)ccc1N(C)CCCN(C)C [Example 103, 5-(2-amino-6-quinazolinyl)-3-bromo-N-(2-((3-(dimethylamino)propyl)(methyl)amino)-5-(trifluoromethyl)phenyl)-2-(methyloxy)benzamide]	–
≤ 25 µM	Cc1ccc(C(=O)NCCN(C)C)cc1-c1ccc2nc(N)ncc2c1 [Example 134, 3-(2-amino-6-quinazolinyl)-N-(2-(dimethylamino)ethyl)-4-methylbenzamide]	–
≤ 1 µM	Cc1ccc(C(=O)Nc2cc(C(F)(F)F)ccc2CN2CCN(C)CC2)cc1-c1ccc2ncnc(N)c2c1 [Example 383, 3-(4-amino-6-quinazolinyl)-4-methyl-N-(2-((4-methyl-1-piperazinyl)methyl)-5-(trifluoromethyl)phenyl)benzamide]	–
≤ 1 µM	Cc1ccc(C(=O)Nc2cc(C(F)(F)F)ccc2N(C)C)cc1-c1ccc2ncnc(N)c2c1 [Example 385, 3-(4-amino-6-quinazolinyl)-N-(2-(dimethylamino)-5-(trifluoromethyl)phenyl)-4-methylbenzamide]	–
≤ 1 µM	CC1(C)CC(=O)Nc2cc(NC(=O)c3cc(-c4ccc5nc(N)ncc5c4)ccc3F)ccc21 [Example 412]	–
–	Cc1ccc(C(=O)Nc2ccc(N3CCCC3)c(C(=O)N3CCCC3)c2F)cc1-c1ccc2nc(N)ncc2c1 [Example 428, 3-(2-amino-6-quinazolinyl)-N-(2-fluoro-4-(1-pyrrolidinyl)-3-(1-pyrrolidinylcarbonyl)phenyl)-4-methylbenzamide]	≤ 25 µM
–	Cc1ccc(C(=O)Nc2cccc(C#N)c2)cc1-c1ccc2nc(N)ncc2c1 [Example 429, 3-(2-amino-6-quinazolinyl)-N-(3-cyanophenyl)-4-methylbenzamide]	≤ 25 µM
–	Cc1ccc(NC(=O)c2cc(C(F)(F)F)ccc2C(F)(F)F)cc1-c1ccc2nc(N)ncc2c1 [Example 430, N-(3-(2-amino-6-quinazolinyl)-4-methylphenyl)-2,5-bis(trifluoromethyl)benzamide]	≤ 25 µM
–	Cc1ccc(NC(=O)c2cc(C(F)(F)F)ccc2N(C)CCCN(C)C)cc1-c1ccc2nc(N)ncc2c1 [Example 431, N-(3-(2-amino-6-quinazolinyl)-4-methylphenyl)-2-((3-(dimethylamino)propyl)(methyl)amino)-5-(trifluoromethyl)benzamide]	≤ 25 µM
–	Cc1ccc(NC(=O)c2cccc(C(C)C)c2)cc1-c1ccc2nc(N)ncc2c1 [Example 432, N-(3-(2-aminoquinazolin-6-yl)-4-methylphenyl)-3-isopropylbenzamide]	≤ 25 µM

IC50 (LCK KD GST (225-509))	SMILES	IC50 [1]
–	Nc1ncc2cc(-c3ccc(F)c(NC(=O)c4cc(C(F)(F)F)ccc4F)c3)ccc2n1 [Example 433, N-(5-(2-aminoquinazolin-6-yl)-2-fluorophenyl)-2-fluoro-5-(trifluoromethyl)benzamide]	≤ 25 µM
–	CN1CCN(c2ccc(C(F)(F)F)cc2C(=O)Nc2cc(-c3ccc4nc(N)ncc4c3)ccc2F)CC1 [Example 434, N-(5-(2-aminoquinazolin-6-yl)-2-fluorophenyl)-2-(4-methylpiperazin-1-yl)-5-(trifluoromethyl)benzamide]	≤ 25 µM
–	Nc1ncc2cc(-c3cc(NC(=O)c4cccc(C(F)(F)F)c4F)ccc3Cl)ccc2n1 [Example 481, N-(3-(2-amino-6-quinazolinyl)-4-chlorophenyl)-2-fluoro-3-(trifluoromethyl)benzamide]	≤ 25 µM
–	Nc1ncc2cc(-c3cc(NC(=O)c4cccc(Cl)c4Cl)ccc3Cl)ccc2n1 [Example 482, N-(3-(2-amino-6-quinazolinyl)-4-chlorophenyl)-2,3-dichlorobenzamide]	≤ 25 µM
–	Cc1ccc(NC(=O)c2ccccc2)cc1-c1ccc2nc(NC(=O)c3ccccc3)ncc2c1 [Example 483, N-(6-(2-methyl-5-((phenylcarbonyl)amino)phenyl)-2-quinazolinyl)benzamide]	≤ 25 µM
–	Nc1ncc2cc(-c3ccc(F)c(NC(=O)c4ccccc4)c3)ccc2n1 [Example 485, N-(5-(2-amino-6-quinazolinyl)-2-fluorophenyl)benzamide]	≤ 25 µM
–	Nc1ncc2cc(-c3ccc(F)c(NC(=O)C4CC4)c3)ccc2n1 [Example 486, N-(5-(2-amino-6-quinazolinyl)-2-fluorophenyl)cyclopropanecarboxamide]	≤ 25 µM
–	Nc1ncc2cc(-c3ccc(F)c(NC(=O)c4cccc(Cl)c4Cl)c3)ccc2n1 [Example 487, N-(5-(2-amino-6-quinazolinyl)-2-fluorophenyl)-2,3-dichlorobenzamide]	≤ 25 µM
–	CC(C)(C)c1ccc(C(=O)Nc2cc(-c3ccc4nc(N)ncc4c3)ccc2F)cc1 [Example 488, N-(5-(2-amino-6-quinazolinyl)-2-fluorophenyl)-4-(1,1-dimethylethyl)benzamide]	≤ 25 µM
–	Nc1ncc2cc(-c3ccc(F)c(NC(=O)c4cc(F)cc(C(F)(F)F)c4)c3)ccc2n1 [Example 489, N-(5-(2-amino-6-quinazolinyl)-2-fluorophenyl)-3-fluoro-5-(trifluoromethyl)benzamide]	≤ 25 µM
–	COc1cc(OC)cc(C(=O)Nc2cc(-c3ccc4nc(N)ncc4c3)ccc2F)c1 [Example 490, N-(5-(2-amino-6-quinazolinyl)-2-fluorophenyl)-3,5-bis(methyloxy)benzamide]	≤ 25 µM
–	CC(C)c1cccc(C(=O)Nc2cc(-c3ccc4nc(N)ncc4c3)ccc2F)c1 [Example 491, N-(5-(2-amino-6-quinazolinyl)-2-fluorophenyl)-3-(1-methylethyl)benzamide]	≤ 25 µM
≤ 1 µM	CC(C)c1cccc(C(=O)Nc2cc(-c3ccc4nc(N)ncc4c3)cc(C(F)(F)F)c2)c1 [Example 512, N-(3-(2-amino-6-quinazolinyl)-5-(trifluoromethyl)phenyl)-3-(1-methylethyl)benzamide]	–
≤ 1 µM	Nc1ncnc2ccc(-c3cccc(NC(=O)c4cccc(C(F)(F)F)c4)c3)cc12 [Example 513, N-(3-(4-amino-6-quinazolinyl)phenyl)-3-(trifluoromethyl)benzamide]	–
–	COc1ccc(Cl)cc1NC(=O)Nc1ccc(-c2ccc3nc(N)ncc3c2)c(C)c1 [Example 520, N-(4-(2-amino-6-quinazolinyl)-3-methylphenyl)-N′-(5-chloro-2-(methyloxy)phenyl)urea]	≤ 25 µM
–	Cc1ccc(NC(=O)Nc2cccc(C(F)(F)F)c2)cc1-c1ccc2nc(N)ncc2c1 [Example 524, N-(3-(2-amino-6-quinazolinyl)-4-methylphenyl)-N′-(3-(trifluoromethyl)phenyl)urea]	≤ 25 µM
–	Cc1cccc(C)c1-c1ccc2nc(NCCN3CCOCC3)ncc2c1 [Example 534, 6-(2,6-dimethylphenyl)-N-(2-morpholinoethyl)quinazolin-2-amine]	≤ 25 µM
–	Cc1cccc(C)c1-c1ccc2nc(N)ncc2c1 [Example 535, 6-(2,6-dimethylphenyl)-2-quinazolinamine]	≤ 25 µM

SMILES	IC50 (LCK KD GST (225-509))	IC50 [1]
CNc1ncc2cc(-c3cc(C(=O)Nc4ccc(F)c(C(F)(F)F)c4)ccc3C)ccc2n1 [Example 16, N-(4-fluoro-3-(trifluoromethyl)phenyl)-4-methyl-3-(2-(methylamino)-6-quinazolinyl)benzamide]	≤ 1 µM	≤ 25 µM
CN(C)c1cccc2c(S(=O)(=O)Nc3cccc(-c4ccc5nc(N)ncc5c4)c3)cccc12 [Example 55, N-(3-(2-amino-6-quinazolinyl)phenyl)-5-(dimethylamino)-1-naphthalenesulfonamide]	≤ 1 µM	≤ 25 µM
